Patent EP4707280A1, “1,4-CINEOLE DERIVATIVE AND INTERMEDIATE THEREOF, HERBICIDE CONTAINING SAID DERIVATIVE AS ACTIVE INGREDIENT, METHOD FOR USING HERBICIDE, AND METHOD FOR PREPARING AGROCHEMICAL COMPOSITION” (HOKKO CHEMICAL INDUSTRY CO., LTD., priority 2023, dated 2024)

What was measured:
Type in all cases: in vivo
[1] = tested on: Echinochloa crus-galli var. formosensis; assay: Test Example 1: herbicidal effect test by soil application in paddy rice; details: Echinochloa crus-galli, soil, 336 h; 120 g active ingredient per 10 ares; applied immediately after sowing, flooded pots; 14 days after application; read-out: weed inhibition rate
In short: (§1)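 Treatment: 120 g active ingredient per 10 ares as a water-diluted emulsifiable concentrate, dropped onto flooded pots immediately after sowing. Thirty seeds per species went 0–1 cm into puddled paddy soil with 16:16:16 fertilizer, with ~3 cm flooding maintained in a glass greenhouse.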

[2] = tested on: Scirpus juncoides; assay: as above; details: Schoenoplectiella juncoides, soil, 336 h; 120 g active ingredient per 10 ares; applied immediately after sowing, flooded pots; 14 days after application; read-out: weed inhibition rate
In short: as §1

[3] = tested on: Echinochloa crus-galli var. formosensis; assay: Test Example 2: herbicidal effect test by application during growth period of paddy rice; details: Echinochloa crus-galli; 120 g per 10 ares; applied seven days after sowing, flooded pots; 14 days after application; read-out: weed inhibition rate
In short: (§2)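 Paddy soil in Wagner pots was puddled with N:P:K 16:16:16 fertilizer, sown with 30 weed seeds per species at 0–1 cm and flooded to about 3 cm. Seven days after sowing, a water-diluted emulsifiable concentrate was dropped onto the water at 120 g active ingredient per 10 ares. Weed inhibition (%) was scored at 14 days, in duplicate.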

[4] = tested on: Scirpus juncoides; assay: as above; details: Schoenoplectiella juncoides; 120 g per 10 ares; applied seven days after sowing, flooded pots; 14 days after application; read-out: weed inhibition rate
In short: as §2

[5] = tested on: Digitaria ciliaris; assay: Test Example 3: herbicidal effect test by soil application in upland field; details: Digitaria ciliaris, 120 g per 10 ares, sprayed one day after sowing, 14 days after application, read-out: weed inhibition rate
In short: (§3)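 Weed inhibition (%) was assessed 14 days after treatment, in duplicate per concentration group. Seeds had been mixed into the upper 1 cm of upland alluvial loam, and the soil surface was sprayed one day later with the diluted emulsifiable concentrate at 120 g active ingredient per 10 ares.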

[6] = tested on: Echinochloa crus-galli; assay: as above; details: Echinochloa crus-galli, 120 g per 10 ares, sprayed one day after sowing, 14 days after application, read-out: weed inhibition rate
In short: as §3

[7] = tested on: Digitaria ciliaris; assay: Test Example 4: herbicidal effect test by stem and leaf treatment in upland field; details: Digitaria ciliaris; 120 g per 10 ares; sprayed seven days after sowing, upland soil; 14 days after application; read-out: weed inhibition rate
[8] = tested on: Echinochloa crus-galli; assay: as above; details: Echinochloa crus-galli; 120 g per 10 ares; sprayed seven days after sowing, upland soil; 14 days after application; read-out: weed inhibition rate
[9] = tested on: Echinochloa crus-galli var. formosensis; assay: Test Example 5: herbicidal effect test by soil application in paddy rice (low dose); details: Echinochloa crus-galli, soil, 336 h; 7.5 g per 10 ares; applied immediately after sowing, flooded pots; 14 days after application; read-out: weed inhibition rate
In short: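 Paddy soil in Wagner pots was fertilized (N:P:K 16:16:16), puddled, sown with 30 seeds per weed species at 0–1 cm, then flooded to ~3 cm in a glass greenhouse. Emulsifiable concentrate diluted in water was dropper-applied into floodwater immediately, at 7.5 g active ingredient per 10 ares; duplicates, scored at 14 days.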

[10] = tested on: Echinochloa crus-galli var. formosensis; assay: Test Example 6: herbicidal effect test by application during growth period of paddy rice (low dose); details: Echinochloa crus-galli; 7.5 g per 10 ares; applied seven days after sowing, flooded pots; 14 days after application; read-out: weed inhibition rate
In short: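 Formulated compound, diluted in water, was dropped onto flooded pots seven days post-sowing at 7.5 g a.i. per 10 ares. Seeds had been sown 0-1 cm deep in puddled paddy soil under ~3 cm water in a glass greenhouse. Inhibition (%) assessed at 14 days; duplicate pots.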

[11] = tested on: Digitaria ciliaris; assay: Test Example 7: herbicidal effect test by soil application in upland field (low dose); details: Digitaria ciliaris, 7.5 g per 10 ares, sprayed one day after sowing, 14 days after application, read-out: weed inhibition rate
In short: (§4)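 Pre-emergence soil application: upland alluvial loam pots sown with weed seeds mixed into the top 1 cm; one day after sowing, a water-diluted emulsifiable concentrate was sprayed on the soil at 100 L per 10 a, delivering 7.5 g active ingredient per 10 a. Weed inhibition rate (%) scored 14 days after application, duplicate pots.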

[12] = tested on: Echinochloa crus-galli; assay: as above; details: Echinochloa crus-galli, 7.5 g per 10 ares, sprayed one day after sowing, 14 days after application, read-out: weed inhibition rate
In short: as §4

[13] = tested on: Digitaria ciliaris; assay: Test Example 8: herbicidal effect test by stem and leaf treatment in upland field (low dose); details: Digitaria ciliaris; 7.5 g per 10 ares; sprayed seven days after sowing, upland soil; 14 days after application; read-out: weed inhibition rate
[14] = tested on: Echinochloa crus-galli; assay: as above; details: Echinochloa crus-galli; 7.5 g per 10 ares; sprayed seven days after sowing, upland soil; 14 days after application; read-out: weed inhibition rate

CC(C)=CCOC1CC2(C(C)C)OC1(C)CC2Br (stereo not shown) [1-1334, 5-bromo-1-methyl-2-(3-methylbut-2-enoxy)-4-isopropyl-7-oxabicyclo[2.2.1]heptane]
≥ 80%: pest or weed control at 1200 g/ha [1] | pest or weed control at 1200 g/ha [2] | inhibition at 1200 g/ha [3] | inhibition at 1200 g/ha [4] | inhibition at 1200 g/ha [5] | inhibition at 1200 g/ha [6] | inhibition at 1200 g/ha [7] | inhibition at 1200 g/ha [8] | inhibition at 75 g/ha [9] | inhibition at 75 g/ha [10] | inhibition at 75 g/ha [11] | inhibition at 75 g/ha [12] | inhibition at 75 g/ha [13] | inhibition at 75 g/ha [14]

CC(C)C12CC(OCc3ccccc3)C(C)(CC1Br)O2 (stereo not shown) [1-1342, 5-bromo-1-methyl-2-phenylmethoxy-4-isopropyl-7-oxabicyclo[2.2.1]heptane]
≥ 80%: pest or weed control at 1200 g/ha [1] | pest or weed control at 1200 g/ha [2] | inhibition at 1200 g/ha [3] | inhibition at 1200 g/ha [4] | inhibition at 1200 g/ha [5] | inhibition at 1200 g/ha [6] | inhibition at 1200 g/ha [7] | inhibition at 1200 g/ha [8] | inhibition at 75 g/ha [9] | inhibition at 75 g/ha [10] | inhibition at 75 g/ha [11] | inhibition at 75 g/ha [12] | inhibition at 75 g/ha [13] | inhibition at 75 g/ha [14]

CC(C)C12CC(OCc3ccccn3)C(C)(CC1Br)O2 (stereo not shown) [1-1386, 2-[(5-bromo-1-methyl-4-isopropyl-7-oxabicyclo[2.2.1]heptan-2-yl)oxymethyl]pyridine]
≥ 80%: pest or weed control at 1200 g/ha [1] | pest or weed control at 1200 g/ha [2] | inhibition at 1200 g/ha [3] | inhibition at 1200 g/ha [4] | inhibition at 1200 g/ha [5] | inhibition at 1200 g/ha [6] | inhibition at 1200 g/ha [7] | inhibition at 1200 g/ha [8] | inhibition at 75 g/ha [9] | inhibition at 75 g/ha [10] | inhibition at 75 g/ha [11] | inhibition at 75 g/ha [12] | inhibition at 75 g/ha [13] | inhibition at 75 g/ha [14]

CC(C)C12CC(OCc3cccs3)C(C)(CC1Br)O2 (stereo not shown) [1-1389, 5-bromo-1-methyl-4-isopropyl-2-(thiophen-2-ylmethoxy)-7-oxabicyclo[2.2.1]heptane]
≥ 80%: pest or weed control at 1200 g/ha [1] | pest or weed control at 1200 g/ha [2] | inhibition at 1200 g/ha [3] | inhibition at 1200 g/ha [4] | inhibition at 1200 g/ha [5] | inhibition at 1200 g/ha [6] | inhibition at 1200 g/ha [7] | inhibition at 1200 g/ha [8] | inhibition at 75 g/ha [9] | inhibition at 75 g/ha [10] | inhibition at 75 g/ha [11] | inhibition at 75 g/ha [12] | inhibition at 75 g/ha [13] | inhibition at 75 g/ha [14]

CC(C)=CCOC1CC2(C(C)C)OC1(C)CC2I (stereo not shown) [1-1400, 5-iodo-1-methyl-2-(3-methylbut-2-enoxy)-4-isopropyl-7-oxabicyclo[2.2.1]heptane]
≥ 80%: pest or weed control at 1200 g/ha [1] | pest or weed control at 1200 g/ha [2] | inhibition at 1200 g/ha [3] | inhibition at 1200 g/ha [4] | inhibition at 1200 g/ha [5] | inhibition at 1200 g/ha [6] | inhibition at 1200 g/ha [7] | inhibition at 1200 g/ha [8] | inhibition at 75 g/ha [9] | inhibition at 75 g/ha [10] | inhibition at 75 g/ha [11] | inhibition at 75 g/ha [12] | inhibition at 75 g/ha [13] | inhibition at 75 g/ha [14]
